molecular target: one or more of HDAC-4, HDAC-5, HDAC-6, HDAC-7, HDAC-8, HDAC-9, HDAC-10 and HDAC-11; test: Inhibition of histone deacetylase enzymatic activity (summary statement over isoforms); type: biochemical; conditions: Table 3, selected examples; HDAC isoform not given
Description: The following protocol is used to assay the compounds of the invention.
The mixture is pre-incubated for 5 minutes at room temperature. The reaction is started by bringing the temperature to 37° C. and adding 15 μL substrate. Total reaction volume is 50 μL.
A 30 mM stock of Boc-Lys(trifluoroacetyl)-AMC substrate is prepared in DMSO. […] Reaction is started by adding 18 μL Boc-Lys(trifluoroacetyl)-AMC substrate and incubating at 37° C. for 20-30 minutes. The reaction is stopped by adding 50 μL trypsin (1 mg/mL) and a known HDAC inhibitor.

Row | Compound | IC50 [nM]
1 | 2-(3-(benzo[d][1,3]dioxol-5-ylmethylbenzo[d][1,3]dioxol-5-ylmethoxy)phenyl)-N-hydroxy-2-phenylacetamide [Compound 3-7] | < 1000
2 | 2-(4-(benzo[d][1,3]dioxol-5-ylmethylbenzo[d][1,3]dioxol-5-ylmethoxy)phenyl)-N-hydroxy-2-phenylacetamide [Compound 3-11] | < 1000
3 | O=C(NO)C(c1ccc([N+](=O)[O-])cc1)c1ccc([N+](=O)[O-])cc1 [Compound 1-3, N-hydroxy-2,2-bis(4-nitrophenyl)acetamide] | < 1000
4 | O=C(NO)C(c1ccccc1)N1CCCCC1 (stereo not drawn) [Compound 1-4, N-hydroxy-2-phenyl-2-(piperidin-1-yl)acetamide] | < 1000
5 | O=C(CN(Cc1ccccc1)S(=O)(=O)c1ccccc1)NO [Compound 1-5, 2-(N-benzylphenylsulfonamido)-N-hydroxyacetamide] | 1000 to 15000
6 | O=C(CC(c1ccccc1)c1ccccc1)NO [Compound 1-6, N-hydroxy-3,3-diphenylpropanamide] | < 1000
7 | O=C(NO)C(c1ccc2c(c1)CCO2)c1ccc2c(c1)CCO2 [Compound 1-8, 2,2-bis(2,3-dihydrobenzofuran-5-yl)-N-hydroxyacetamide] | < 1000
8 | O=C(NO)C(c1ccccc1)C1CCCCC1 (stereo not drawn) [Compound 1-10, 2-cyclohexyl-N-hydroxy-2-phenylacetamide] | < 1000
9 | O=C(NO)C(Sc1ccccc1)c1ccccc1 (stereo not drawn) [Compound 1-12, N-hydroxy-2-phenyl-2-(phenylthio)acetamide] | < 1000
10 | CC(C(=O)NO)(c1ccccc1)c1ccccc1 [Compound 1-14, N-hydroxy-2,2-diphenylpropanamide] | < 1000
11 | O=C(NO)C(c1ccc(Cl)cc1)c1ccc(Cl)cc1 [Compound 1-15, 2,2-bis(4-chlorophenyl)-N-hydroxyacetamide] | < 1000
12 | O=C(NO)C(c1ccccc1)N1CCN(c2ccccc2)CC1 (stereo not drawn) [Compound 1-16, N-hydroxy-2-phenyl-2-(4-phenylpiperazin-1-yl)acetamide] | < 1000
13 | O=C(NO)C(c1ccc(F)cc1)c1ccc(F)cc1 [Compound 1-18, 2,2-bis(4-fluorophenyl)-N-hydroxyacetamide] | < 1000
14 | O=C(NO)C(c1ccccc1)c1nc2ccc(-c3cccs3)cc2[nH]1 (stereo not drawn) [Compound 1-20, N-hydroxy-2-phenyl-2-(6-(thiophen-2-yl)-1H-benzo[d]imidazol-2-yl)acetamide] | < 1000
15 | O=C(NO)/C(=C/c1ccccc1)c1ccccc1 [Compound 1-21, (E)-N-hydroxy-2,3-diphenylacrylamide] | < 1000

The next lines start with the values.

Row | IC50 [nM] | Compound
16 | < 1000 | O=C(NO)C(Oc1ccccc1)c1ccccc1 (stereo not drawn) [Compound 1-2, N-hydroxy-2-phenoxy-2-phenylacetamide]
17 | < 1000 | O=C(NO)C(c1ccccc1)N1CCC(Cc2ccccc2)CC1 (stereo not drawn) [Compound 1-9, 2-(4-benzylpiperidin-1-yl)-N-hydroxy-2-phenylacetamide]
18 | 1000 to 15000 | O=C(NO)C(Cc1ccccc1)c1ccccc1 (stereo not drawn) [Compound 1-11, N-hydroxy-2,3-diphenylpropanamide]
19 | 1000 to 15000 | O=C(NO)C(c1ccccc1)n1cccc1 (stereo not drawn) [Compound 1-13, N-hydroxy-2-phenyl-2-(1H-pyrrol-1-yl)acetamide]
20 | 1000 to 15000 | O=C(NO)C(c1ccccc1)N1CCN(Cc2ccccc2)CC1 (stereo not drawn) [Compound 1-17, 2-(4-benzylpiperazin-1-yl)-N-hydroxy-2-phenylacetamide]
21 | < 1000 | CCN(CC)c1ccc(C(C(=O)NO)c2ccccc2)cc1 (stereo not drawn) [Compound 1-19, 2-(4-(diethylamino)phenyl)-N-hydroxy-2-phenylacetamide]
22 | 1000 to 15000 | O=C(NO)C(c1ccccc1)N1Cc2ccccc2C1 (stereo not drawn) [Compound 1-22, N-hydroxy-2-(isoindolin-2-yl)-2-phenylacetamide]
23 | 1000 to 15000 | O=C(NO)C(c1cccs1)c1cccs1 [Compound 1-23, N-hydroxy-2,2-di(thiophen-2-yl)acetamide]
24 | < 1000 | O=C(NO)C(Sc1nc2ccccc2s1)c1ccccc1 (stereo not drawn) [Compound 1-24, 2-(benzo[d]thiazol-2-ylthio)-N-hydroxy-2-phenylacetamide]
